In US20040014772A1, “Compositions and methods for treating glomerular disorders” (priority 2000, published 2004):
Entries after “also recorded” stand apart in the source; their conditions may differ.

How the values were obtained:
CYP2B1 = CYP2B1 content in GEC exposed to PAN (western blot); assay type: cell-based, rat; conditions: PAN 1.5 mM for 2 hr at 37° C.; CM 2 mM, PIP 0.2 mM, pyruvate 10 mM
Source text: (§1) The microsome fraction obtained was subjected to SDS-page electrophoresis in 1 mm slab gels. The separated forms were transferred from gel to a nitrocellulose sheet using a Mini Trans-blot electroblotting unit. The primary antibodies were monoclonal anti-HO-1 (OSA-111, StressGen, Victoria, BC, Canada) and monoclonal anti-CYP2B1 (PM25, Oxford Biomedical Research, Oxford, Mich., USA). Subsequent to primary and secondary antibody (peroxidase-labeled) treatment, the blots were visualized by enhanced chemiluminescence method.

[1] = test system: glomerular epithelial cells GEC; experiment: PAN induced catalytic iron release from GEC (bleomycin detectable iron); assay type: cell-based, rat; conditions: PAN 1.5 mM 1 h; preincubation CM 2 mM, PB 25 μM, RN 1 mM, PIP 0.2 mM, pyruvate 10 mM
Experimental: Iron capable of catalyzing free radical reactions was measured by bleomycin detectable iron assay as described by Gutteridge et al, 1981, Biochem. J. 199:263-265, Gutteridge et al, 1982, Biochem. J. 206:605-609, Baliga et al, 1993, Bioche. J. 291:901-905, Baliga et al, 1996, Kidney Int. 49:362-369, Baliga et al, Kidney Int. 53:394-401, Ueda et al, 1996, Kidney Int. 49:370-373, Baliga et al, 1998, Kidney Int. 54:1562-1569.
Confluent cell monolayer was washed three times with Chelex-treated HBSS to remove as much contaminating iron as possible. The GEC monolayer was then incubated in Chelex-treated HBSS with cytotoxic dose of PAN for a period time at 37° C. before substantial cell killing and after significant iron release occurs (1.5 mM, 60 min, based on a time course study on iron release induced by PAN, data not shown). The incubation medium was then collected for the measurement of catalytic iron using bleomycin detectable iron assay as mentioned above. To determine the effect of CYP inhibitors on the iron release, GEC monolayer was preincubated with CM (2 mM), RN (1 mM, as a control of CM) for 30 min or PB (25 uM) for 60 min in Chelex-treated HBSS at 37° C. After the incubation, the medium with CYP inhibitor was discarded and then the cell monolayers were washed twice with chelex-treated HBSS prior to the incubation of PAN.

[2] = test system: glomerular epithelial cells GEC; experiment: Intracellular H2O2 generation in GEC (DCF fluorescence); assay type: cell-based, rat; conditions: PAN 1.5 mM; CM, PIP, RN or pyruvate 10 mM
Experimental: The principle of this method is that the oxidation of 2′,7′-dichlorofluorescin-diacetate (DCFH-DA) in the presence of H2O2 produces the highly fluorescent compound 2′,7′-dichlorofluroescin (DCF) which can be measured by fluorometer. The intracellular generation of H2O2 in GEC was tested utilizing the microplate assay procedure described by Rosenkranz et al (J. Immunol. Methods, 1992, 156:39-45.). In brief, confluent GEC were harvested by trypsin and suspended in HBSS. After an equilibration period at 37° C. with constant shaking, they were transferred to a microplate (2×10^5-1×10^6 cells/well) and then incubated at 37° C. with equal volumes of DCFH-DA (10 μl/ml) and PAN (1.5 mM) for the planned time period. At the end of the incubation, the fluorescent intensity of the cell suspension was read using a fluorescence spectrophotometer (wavelength 485/535 nm) capable of reading microtiter plates.

heme oxidase (HO-1) = experiment: HO-1 induction in kidney of PAN-treated rats (immunohistochemistry, western blot, RT-PCR); assay type: in vivo, rat
Source text: as §1
Kidney cortical sections were fixed in 10% buffered formalin for 6 hours and embedded in paraffin. After deparaffinization and antigen retrieval, the sections were immunolabeled and visualized according to an avidin-biotin complex (ABC) method. The primary antibody for detection of ferritin was polyclonal anti-Ferritin (L subunit) antibody (605022; Boehringer Mannheim Corp., Indianapolis, Ind., USA).
RNA was isolated from the kidney cortex using TRIzol Reagant (Gibco, BRL, Gaithersburg, Md., USA). Revers transcription of […] of total RNA was carried out using Moloney murine leukemia virus reverse transcriptase (Gibco, BRL). The resulting first-strand cDNA preparations were used as templates for PCR. HO-1 primer described by Paschen et al (Neurosci Lett, 1994, 180:5-8.) were purchased from Gibco, BRL. The sense primer was: %′-[…]-3′, and the antisense 5′-[…]-3′. […]

H2O2 in the glomeruli = experiment: Ultrastructural localization of H2O2 (cerium histochemistry) in rat kidney; assay type: in vivo; conditions: rats
Experimental: The principle of this method is that cerium ions combine with H2O2 generated by the cell that results in a precipitate with properties suitable for ultrastructural histochemistry. Localization of H2O2 generation was performed following the procedure of Neale et al (PNAS, USA, 1993, 90:3645-3649.). Following PAN treatment, the left kidney was perfused at 37° C. by retrograde aortic perfusion with 4 ml of each of the following solutions: a) PBS; b) 20 mmol Tris-maleate buffer (pH 7.2) containing 7% sucrose (TMS); c) TMS containing 1 mmol aminotriazole; d) TMS containing 10 mmol aminotriazole, 1 mmol cerium chloride heptahydrate and 2.56 mmol B-NADPH; and e) TMS followed by 10 mmol of 2.5% glutaraldehyde as the fixative. Pieces of the kidney were fixed further for 2 hours in glutaraldehyde and embedded in Epon. Sections from the tissue block were routinely stained with 4% aqueous uranyl acetate and alkaline lead, and examined under a Leo 906 electron microscope.

[3] = Renal function (serum creatinine, BUN) in PAN-treated rats; assay type: in vivo, rat; conditions: PAN-treated rats with or without PIP or CM
Experimental: BUN and creatinine were measured by using assay kits from Sigma.

## CN/C(=N/CCSCc1nc[nH]c1C)NC#N [CM, cimetidine]
CYP2B1
  CYP2B1 content in GEC: preserved
[1]
  bleomycin detectable (catalytic) iron release from GEC: drastically prevents the increase; also recorded: prevented the increase
[2]
  intracellular H2O2 generation in GEC: significantly decreased

## CN(C)c1ncnc2c1ncn2[C@@H]1O[C@H](CO)[C@@H](N)[C@H]1O [PAN, puromycin aminonucleoside]
CYP2B1
  CYP2B1 content in GEC: significant reduction
Heme oxidase (HO-1); PAN-treated rats
  HO-1 induction in the glomeruli and tubules: marked induction
Heme oxidase (HO-1); RT-PCR vs GAPDH, one hour to day 4 after PAN
  HO-1 mRNA expression in the kidney: significantly increase
H2O2 in the glomeruli; 1 hour and 6 hours after PAN injection
  cerium-H2O2 reaction product in the glomerular basement membrane: diffusely distributed throughout the glomerular basement membrane
H2O2 in the glomeruli; fourth day after PAN, onset of proteinuria
  foot processes (electron microscopy): marked fusion of the foot processes
[1]
  bleomycin detectable (catalytic) iron release from GEC: significant increase
[2]
  intracellular H2O2 generation in GEC: marked increase
[3]; control 0.72±0.2
  serum creatinine: 0.85 ± 0.2 mg/dL
[3]; control 21±3, P<0.05 vs control
  BUN: 33 ± 4 mg/dL
